Test results published in patent US20220332720A1, “BICYCLIC AGONISTS OF STIMULATOR OF INTERFERON GENES STING” (The Scripps Research Institute, priority 2019, published 2022).

Test system: THP-1 Lucia ISG cells
Experiment: ISG-LUC activation assay (ISRE-luciferase assay)
Format: cell-based
Conditions: Homo sapiens, THP1-Lucia ISG, 24 h, read-out: ISG-LUC activation assay score
Text: We have established a robust platform for identifying non-nucleotide small molecule STING agonists. his has been established using a primary assay involving a human THP-1 cell line carrying an IRF-inducible reporter with 5 copies of the IFN signaling response element. Counter screens, involving alternative reporter constructs, rodent cell-based assays, as well as cGAS and STING knock-out cell lines, are used to eliminate luciferase artifacts and ensure human-rodent cross species reactivity, as well as pathway selectivity. Biochemical assays, involving cGAS enzymatic activity and STING protein binding assays, are used to identify the specific target of identified hits.
Tissue culture. Wild-type (cat. no. thpl-isg) and STING KO (cat. no. thpd-kostg) THP-1-Lucia ISG cells were purchased from Invivogen and maintained in growth media consisting of RPMI 1640, 2mM L-glutamine, […], 10% heat-inactivated fetal bovine serum (FBS), 1,000 units/ml penicillin, 1,000 μg/ml streptomycin, 0.25 μg/ml Amphotericin B, and 100 μg/ml zeocin unless otherwise stated.
ISRE-luciferase assay. THP-1 Lucia ISG cells were resuspended in low-serum growth media (2% FBS) at a density of 5×10^5 cells/ml and treated with test article or vehicle (DMSO). 50 μL of cells were seeded into each well of a 384-well white greiner plates and incubated for 24 hours. To evaluate expression of the luciferase reporter, 30 μl of Quanti-luc (Invivogen) detection reagent was added to each well and luminescence was read using an Envision plate reader (Perkin Elmer) set with an integration time of 0.1 seconds.

Row | SMILES | EC50 [nM]
1 | C#Cc1cc(NC(=O)c2cc(N)c3nnnn3n2)c(C(=O)O)cc1F [Compound 1, lithium 2-(8-aminotetrazolo[1,5-b]pyridazine-6-carboxamido)-4-ethynyl-5-fluorobenzoate] | < 3000

Same assay, conditions: Homo sapiens, THP1-Lucia ISG; THP-1 Lucia ISG reporter cells, 24 hours; score based upon potency and efficacy relative to reference compound; read-out: ISG-LUC activation assay score

Row | EC50 [nM] | SMILES
2 | < 900 | C#Cc1cc2nc(-c3cc(N)c4nnnn4n3)oc(=O)c2cc1F [Compound 2, 2(8-aminotetrazolo[1,5-b]pyridazin-6-yl)-7-ethynyl-6-fluoro-4H-benzo[d][1,3]oxazin-4-one]
3 | < 900 | COC(=O)c1cc(Cl)c(Cl)cc1NC(=O)c1ccn2c(C#N)cnc2n1 [Compound 3, methyl 4,5-dichloro-2-(3-cyanoimidazo[1,2-a]pyrimidine-7-carboxamido)benzoate]
4 | > 20000 | C#Cc1cc(NC(=O)c2ccn3c(-c4cn[nH]c4)cnc3n2)c(C(=O)O)cc1F [Compound 4, 2-(3-(1H-pyrazol-4-yl)imidazo[1,2-a]pyrimidine-7-carboxamido)-4-ethynyl-5-fluorobenzoic acid]
5 | > 1000 | C=Cc1cc(NC(=O)c2cc(N)c3nnnn3n2)c(C(=O)O)cc1F [Compound 5]
6 | < 3000 | COc1cc(NC(=O)c2ccc3cnnn3n2)c(C(=O)O)cc1F [Compound 6]
7 | < 3000 | COc1cc(NC(=O)c2ccc3nnnn3n2)c(C(=O)O)cc1F [Compound 7]
8 | > 1000 | C#Cc1cc(NC(=O)c2cc(N)c3ncnn3n2)c(C(=O)O)cc1F [Compound 8]
9 | < 3000 | C#Cc1cc(NC(=O)c2ccc3nnnn3n2)c(C(=O)O)cc1F [Compound 9]
10 | < 900 | COC(=O)c1cc(F)c(OC)cc1NC(=O)c1ccc2cnnn2n1 [Compound 10]
11 | > 1000 | C#Cc1cc(NC(=O)c2cc(N)c3nnnn3n2)c(C(=O)O)nc1Cl [Compound 11]
12 | < 3000 | C#Cc1cc(NC(=O)c2ccc3c(C(N)=O)nnn3n2)c(C(=O)O)cc1F [Compound 12]
13 | > 1000 | C#Cc1cc(NC(=O)c2ccc3c(C#N)nnn3n2)c(C(=O)O)cc1F [Compound 13]
14 | < 3000 | C#Cc1cc(NC(=O)c2cc(N)c3nnnn3n2)c(C(=O)O)cc1Cl [Compound 14]
15 | > 1000 | COC(=O)c1cc(F)c(F)cc1NC(=O)c1cccn2cnnc12 [Compound 15]
16 | > 1000 | C=Cc1ccc(C(=O)O)c(NC(=O)c2cc(N)c3nnnn3n2)c1 [Compound 16]
17 | > 1000 | Nc1cc(C(=O)Nc2cc(Cl)c(Cl)cc2C(=O)O)nn2nncc12 [Compound 17]
18 | > 1000 | C#Cc1cc(NC(=O)c2cc(N)n3ncnc3n2)c(C(=O)O)cc1F [Compound 18]
19 | < 900 | C#Cc1cc(NC(=O)c2cc(N)nn3nnnc23)c(C(=O)OC)cc1F [Compound 19]
20 | > 1000 | C#Cc1cc(NC(=O)c2ccn3c(-c4cn[nH]c4)cnc3n2)c(C(=O)OC)cc1F [Compound 20]
21 | > 20000 | COC(=O)c1cc(F)c(F)cc1NC(=O)c1ccc2nccn2n1 [Compound 21]

Row | EC50 [nM] | SMILES
22 | > 1000 | O=C(Nc1cc(F)c(F)cc1C(=O)O)c1ccc2nnnn2n1 [Compound 22]
23 | > 20000 | O=C1CCn2nc(C(=O)Nc3cc(Cl)c(Cl)cc3C(=O)O)nc2N1 [Compound 23]
24 | > 1000 | C#Cc1ccc(C(=O)O)c(NC(=O)c2cc(N)c3nnnn3n2)c1 [Compound 24]
25 | > 20000 | COC(=O)c1nc(Cl)c(Cl)cc1NC(=O)c1cnc2nc[nH]c2c1 [Compound 25]
26 | > 1000 | C=C(F)c1cc(NC(=O)c2cc(N)c3nnnn3n2)c(C(=O)O)cc1F [Compound 26]
27 | > 20000 | C#Cc1cc(NC(=O)c2cc(N)c3[nH]c(C4CC4)nc3n2)c(C(=O)OC)cc1F [Compound 27]
28 | > 20000 | C#Cc1ccc(NC(=O)c2cc(N)c3nnnn3n2)c(C(=O)O)c1 [Compound 28]
29 | > 20000 | Nc1cc(C(=O)Nc2cc3ccccc3cc2C(=O)O)nn2nnnc12 [Compound 29]
30 | < 900 | C=C(F)c1ccc(C(=O)OC)c(NC(=O)c2cc(N)n3ncnc3n2)c1 [Compound 30]
31 | > 20000 | Nc1cc(C(=O)Nc2cc(C3CC3)ccc2C(=O)O)nn2nnnc12 [Compound 31]
32 | > 1000 | C#Cc1cc(NC(=O)c2cc(N)n3ccnc3n2)c(C(=O)O)cc1F [Compound 32]
33 | > 1000 | C=C(F)c1ccc(C(=O)O)c(NC(=O)c2cc(N)c3cnnn3n2)c1 [Compound 33]
34 | < 900 | C#Cc1cc(NC(=O)c2cc(N)c3nnnn3n2)c(C(=O)OC)cc1Cl [Compound 34]
35 | < 900 | C/C=C/c1cc(NC(=O)c2cc(N)c3nnnn3n2)c(C(=O)OC)cc1F [Compound 35]
36 | < 3000 | C#Cc1cc(NC(=O)c2cc(N)c3nnnn3n2)c(C(=O)O)cc1C#N [Compound 36]
37 | > 20000 | C#Cc1cc(NC(=O)c2ccn3nc(N)nc3n2)c(C(=O)O)cc1F [Compound 37]
38 | > 1000 | COC(=O)c1sc(C)cc1NC(=O)c1cc(N)c2nnnn2n1 [Compound 38]
39 | > 1000 | CC#Cc1cc(NC(=O)c2cc(N)c3nnnn3n2)c(C(=O)OC)cc1F [Compound 39]
40 | < 900 | COC(=O)c1cc(F)c(C)cc1NC(=O)c1cc(N)c2nnnn2n1 [Compound 40]
41 | > 1000 | N#Cc1cc(NC(=O)c2cc(N)c3nnnn3n2)c(C(=O)O)cc1F [Compound 41]

Row | EC50 [nM] | SMILES
42 | < 900 | C#Cc1cc(NC(=O)c2ccc3nnnn3n2)c(C(=O)OC)cc1F [Compound 42]
43 | > 1000 | Cc1cc(NC(=O)c2cc(N)c3nnnn3n2)c(C(=O)O)cc1F [Compound 43]
44 | < 900 | C#Cc1cc2nc(-c3ccc4nnnn4n3)oc(=O)c2cc1F [Compound 44]
45 | > 1000 | CCOC(=O)c1nc(Cl)sc1NC(=O)c1cc(N)c2nnnn2n1 [Compound 45]
46 | > 20000 | C#Cc1cc(NC(=O)c2cc(N)n3c(C#N)cnc3n2)c(C(=O)O)cc1F [Compound 46]
47 | > 1000 | COc1cc(NC(=O)c2cc(N)c3nnnn3n2)c(C(=O)OC(C)C)cc1F [Compound 47]
48 | < 900 | COc1cc2nc(-c3ccc4nnnn4n3)oc(=O)c2cc1F [Compound 48]
49 | < 900 | COc1cc2nc(-c3cc(N)c4nnnn4n3)oc(=O)c2cc1F [Compound 49]
50 | > 1000 | C#Cc1cc(NC(=O)c2cc(N)nn3nnnc23)c(C(=O)O)cc1F [Compound 50]
51 | > 20000 | C#Cc1cc(NC(=O)c2ccn3nc(-c4cn[nH]c4)nc3n2)c(C(=O)O)cc1F [Compound 51]
52 | > 1000 | C#Cc1cc(NC(=O)c2ccc3c(C#N)nnn3n2)c(C(=O)OC)cc1F [Compound 52]
53 | < 900 | COc1cc(NC(=O)c2cc(N)c3nnnn3n2)c(C(=O)OC(C)OC(C)=O)cc1F (stereo not drawn) [Compound 54]
54 | > 20000 | COc1cc(NC(=O)c2ccc3c(ncn3C)n2)c(C(=O)O)cc1F [Compound 55]
55 | > 1000 | COC(=O)c1cc(F)c(OC)cc1NC(=O)c1ccc2c(ncn2C)n1 [Compound 56]
56 | > 20000 | COC(=O)c1cc(F)c(OC)cc1NC(=O)c1ccn2c(N)nnc2n1 [Compound 57]
57 | > 20000 | COc1cc(NC(=O)c2ccn3c(N)nnc3n2)c(C(=O)O)cc1F [Compound 58]
58 | > 20000 | C#Cc1cc(NC(=O)c2ccn3c(-c4ccncc4)nnc3n2)c(C(=O)O)cc1F [Compound 59]
59 | > 1000 | C#Cc1cc(NC(=O)c2cc(N)c3nnnn3n2)c(C(=O)O[C@@H]2CSSC[C@H]2O)cc1F [Compound 60]
60 | > 1000 | C#Cc1cc(NC(=O)c2ccc3c(-c4nnc[nH]4)nnn3n2)c(C(=O)O)cc1F [Compound 61]
